According to patent US20090075941A1, “TREATING NEOPLASMS” (THE UAB RESEARCH FOUNDATION, priority 2006, published 2009):

Assays:
[1] = Tumor uptake of Tc99m-medronate, biodistribution; type: in vivo; details: nude mice, i.v.
Protocol: Tumor uptake of Tc99m-medronate. To investigate accumulation of the bone scanning agent (Tc99m-medronate) into the subcutaneous tumors, nude mice were first inoculated subcutaneously with AB-12 or MDA-MB-231 cells (10^6 cells in 100 μl of sterile PBS) and the tumors were allowed to form for 3-4 weeks. Tc99m-medronate (MDP-Bracco™; Bracco Diagnostics Inc.; Princeton, N.J.) was then injected into the tail veins of the mice (˜800-1000 μCi per mouse) in 100 μl. High-resolution pinhole SPECT/CT imaging studies (X-SPECT system, GammaMedica, Inc.; Northridge, Calif.) and biodistribution analyses were performed in nude mice with xenografted rumors to measure in vivo tumor retention of Tc99 medronate following i.v. injection. For SPECT imaging, a total of 64 projections were acquired with a 30-sec acquisition time per projection, using a pinhole collimator with a 1-mm tungsten pinhole insert. […] The dose retention, or % Injected Dose per gram, (% ID/g) of each tissue was calculated by measuring the radioactivity in the tissue using a gamma counter, decay correcting the count rate data to the Tc99m-medronate injection time and normalizing to the total injected dose in the animal as well as the tissue weight. Each animal's dose was determined by measuring the dosing syringe (AtomLab 100 dose calibrator; Biodex Medical Systems; Shirley, N.Y.) before and after injecting the mouse. […]

[2] = system: unprenylated Rap1A in AB-12 mesothelioma cells; experiment: Western blot, unprenylated Rap1A (Example 2); type: cell-based, mouse; details: AB-12 cells, 24 h; for effect on nitrogen-containing bisphosphonate-induced accumulation of unprenylated Rap1A: pyrophosphate-resembling : nitrogen-containing bisphosphonate ratio 100:1
Protocol: (§1) Western blot analysis. Cells were cultured on 6-well plates in normal culture medium until near confluency. The cells were then rinsed with sterile PBS and cultured for further 24 h in serum-tree culture medium, in the presence or absence of the indicated bisphosphonates. Some cultures were also treated with 25 μM geranylgeraniol (cold, all trans), 1.0 μg/ml LPS (Sigma; St. Louis, Mo.) 10 ng/ml IL-1β (R&D Systems; Minneapolis, Minn.) or TNF-α (R&D Systems). To study bisphosphonate effects on connexin-43 expression, the cells were cultured for 24 h in serum-free culture medium in the presence of the indicated bisphosphonates or PBS as a vehicle control. Culture medium was then discarded, the cells were quickly lysed and prepared into Western blot samples, as described in Merrell et al. (2000) Breast Cancer Res. Treat. 81, 231-241. After boiling the supernatants in reducing sodium docedyl sulfate (SDS) sample buffer, equal amounts of protein (˜20-50 μg) were loaded per lane and the samples were electrophoresed on 10% SDS polyacrylamide gel and transferred to a nitrocellulose membrane. To detect, unprenylated Rap1A, the blots were incubated overnight at 4° C. with the antibody SC-1482 (Santa Cruz Technology (San Diego, Calif.)), diluted 1:1000 in Tris-buffered saline, 0.1% (v/v) Tween-20 (TEST), and then with peroxidase-conjugated anti-goat serum (Pierce; Rockford, Ill.), diluted 1:1000 in TBST. Total Rap1 was detected from stripped blots in a similar fashion, with the antibody SC-65 (Santa Cruz Technology). The phosphorylation status of p38 was investigated using anti-phospho-p38 (Cell Signaling; Beverly, Mass.) and after stripping of the membrane, with anti-total p38 antibodies (Cell Signaling), according to the manufacturer's instructions. Expression of connexin-43 was detected with a rabbit anti-connexin-43 antibody (Zymed Laboratories, Inc.; San Francisco, Calif.), diluted 1:1000 in TBST. The protein bands were visualized by chemiluminescence using SuperSignal West Pico ECL kit (Pierce Biotechnology, Inc.; Rockford, Ill.).

[3] = system: unprenylated Rap1A in MDA-MB-231 breast cancer cells; experiment: Western blot, unprenylated Rap1A (Example 2); type: cell-based, human; details: MDA-MB-231 cells, 24 h; for effect on alendronate-induced accumulation of unprenylated Rap1A: 10^−4 M alendronate plus clodronate 10^−3 M, geranylgeraniol 25 μM, or cytokines/LPS
Protocol: as §1

MDA-MB-231 cells = experiment: Cell viability, MTS-assay; type: cell-based, human; details: for effect of added Ca2+ on the bisphosphonate's growth inhibitory effect: 1 mM CaCl2, N-BP 10^−4 M or p-BP 10^−3 M
Protocol: (§2) Cell viability assays. Cells were plated on 96-well plates at the density of 1×10^3 cells in 100 μl per well in normal culture medium, with or without of the indicated concentrations of the various bisphosphonate combinations and or 1 mM CaCl2, 1 mM EGTA or vehicle and cultured for 48 h. Cell viability was assessed with 3-(4,5-dimethylthiazol-2-yl)-5-(3-carboxy tetrazolium, inner salt (MTS)-assays (CellTiter Aqueous One 96 from Promega; Madison, Wis.) according to the manufacturer's instructions. For each treatment, a PBS-control group was run simultaneously on the same plate. The results for each treatment were calculated as % of the corresponding PBS-group.

AB-12 cells = experiment: Cell viability, MTS-assay; type: cell-based, mouse; details: for effect of added Ca2+ on the bisphosphonate's growth inhibitory effect: 1 mM CaCl2, N-BP 10^−4 M or p-BP 10^−3 M
Protocol: as §2

J774 cells = experiment: Cell viability, MTS-assay; type: cell-based; details: for effect of added EGTA on the bisphosphonate's growth inhibitory effect: 1 mM EGTA, N-BP 10^−4 M or clodronate 10^−3 M
Protocol: as §2

[4] = system: p38 phosphorylation in AB-12 cells; experiment: Western blot, phosphorylation of p38 (Example 2); type: cell-based, mouse; details: excess, added simultaneously
Protocol: as §1, with “To detect, unprenylated Rap1A, the blots were incubated overnight at 4° C. with the antibody SC-1482 (Santa Cruz Technology (San Diego, Calif.)), diluted 1:1000 in Tris-buffered saline, 0.1% (v/v) Tween-20 (TEST), and then with peroxidase-conjugated anti-goat serum (Pierce; Rockford, Ill.), diluted 1:1000 in TBST.” left out, “The phosphorylation status of p38 was investigated using anti-phospho-p38 (Cell Signaling; Beverly, Mass.) and after stripping of the membrane, with anti-total p38 antibodies (Cell Signaling), according to the manufacturer's instructions.” left out, “The protein bands were visualized by chemiluminescence using SuperSignal West Pico ECL kit (Pierce Biotechnology, Inc.; Rockford, Ill.).” left out

[5] = system: p38 phosphorylation in MDA-MB-231 cells; experiment: Western blot, phosphorylation of p38 (Example 2); type: cell-based, human; details: 10^−3 M
Protocol: as §1, with “To detect, unprenylated Rap1A, the blots were incubated overnight at 4° C. with the antibody SC-1482 (Santa Cruz Technology (San Diego, Calif.)), diluted 1:1000 in Tris-buffered saline, 0.1% (v/v) Tween-20 (TEST), and then with peroxidase-conjugated anti-goat serum (Pierce; Rockford, Ill.), diluted 1:1000 in TBST.” left out, “The phosphorylation status of p38 was investigated using anti-phospho-p38 (Cell Signaling; Beverly, Mass.) and after stripping of the membrane, with anti-total p38 antibodies (Cell Signaling), according to the manufacturer's instructions.” left out, “The protein bands were visualized by chemiluminescence using SuperSignal West Pico ECL kit (Pierce Biotechnology, Inc.; Rockford, Ill.).” left out

O=P(O)(O)CP(=O)(O)O [Tc99m-medronate, metal not drawn]
tissue with the highest accumulation: bones ([1]; % dose retention in various tissues): highest proportion | accumulation (% dose retention) in AB-12 mesothelioma tumors compared with MDA-MB-231 breast cancer tumors ([1]; tissues ~8 h after injection, % ID/g normalized to blood, P<0.05): significantly higher

NCCCC(O)(P(=O)(O)O)P(=O)(O)O [alendronate]
accumulation of unprenylated Rap1A [2]: dose-dependent accumulation | accumulation of unprenylated Rap1A [3]: dose-dependent accumulation | effect of added EGTA on the bisphosphonate's growth inhibitory effect (MDA-MB-231 cells; 1 mM EGTA, N-BP 10^−4 M): reversed | cell viability (MDA-MB-231 cells; 10^−4 M, P<0.001): significant decrease in cell viability | effect of added EGTA on the bisphosphonate's growth inhibitory effect (AB-12 cells; 1 mM EGTA, N-BP 10^−4 M): reversed | cell viability (AB-12 cells; 10^−4 M, P<0.001): significant decrease in cell viability | effect of added EGTA on the bisphosphonate's growth inhibitory effect (J774 cells): reversed

CC(C)=CCC/C(C)=C/CC/C(C)=C/CC/C(C)=C/CO [geranylgeraniol]
effect on alendronate-induced accumulation of unprenylated Rap1A [3]: reduced

IL-1β: cytokine (R&D Systems), molecule completely unrelated to bisphosphonates
effect on alendronate-induced accumulation of unprenylated Rap1A [3]: not blocked

TNF-α
effect on alendronate-induced accumulation of unprenylated Rap1A [3]: not blocked

O=P(O)(O)C(Cl)(Cl)P(=O)(O)O [clodronate]
accumulation of unprenylated Rap1A [2]: no effect | effect on nitrogen-containing bisphosphonate-induced accumulation of unprenylated Rap1A [2]: completely blocked | effect on alendronate-induced accumulation of unprenylated Rap1A [3]: reduced | accumulation of unprenylated Rap1A [3]: no effect | effect on nitrogen-containing bisphosphonate (risedronate or zoledronate)-induced p38 phosphorylation [4]: blocked | effect on zoledronate-induced (10^−4 M) p38 phosphorylation [5]: blocked | effect of added Ca2+ on the bisphosphonate's growth inhibitory effect (MDA-MB-231 cells): not | effect of added Ca2+ on the bisphosphonate's growth inhibitory effect (AB-12 cells): augmented | effect of added EGTA on the bisphosphonate's growth inhibitory effect (J774 cells): reversed | cell viability (J774 cells; 10^−3 M alone, P<0.001 vs PBS-control): highest sensitivity | cell viability in combination with 1 mM CaCl2 (J774 cells; clodronate 10^−3 M + 1 mM CaCl2): toxic

CC(O)(P(=O)(O)O)P(=O)(O)O [etidronate]
accumulation of unprenylated Rap1A [2]: no effect | effect on nitrogen-containing bisphosphonate-induced accumulation of unprenylated Rap1A [2]: completely blocked | accumulation of unprenylated Rap1A [3]: no effect | effect on nitrogen-containing bisphosphonate (risedronate or zoledronate)-induced p38 phosphorylation [4]: blocked | effect on zoledronate-induced (10^−4 M) p38 phosphorylation [5]: blocked | effect of added Ca2+ on the bisphosphonate's growth inhibitory effect (MDA-MB-231 cells): not | effect of added Ca2+ on the bisphosphonate's growth inhibitory effect (AB-12 cells): augmented
